Drawing on the supplement of paper PMC10307832, this text covers relative viability for six cell lines.

Assay in all cases: relative viability (nuclei count vs DMSO), 5 days (fraction); higher = more cells survive
Compound in assay [1]: CC1(C)CCC(CN2CCN(c3ccc(C(=O)NS(=O)(=O)c4ccc(NCC5CCOCC5)c([N+](=O)[O-])c4)c(Oc4cnc5[nH]ccc5c4)c3)CC2)=C(c2ccc(Cl)cc2)C1 [Venetoclax] + Cc1cc(Nc2cc(N3CCN(C)CC3)nc(Sc3ccc(NC(=O)C4CC4)cc3)n2)n[nH]1 [Tozasertib] (partner 0.1 µM)
The method, boiled down: (§1)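 After 5 days of treatment, lung cancer cells in 1536-well plates were fixed and stained in a single step (final 0.05% Triton X-100, 1% formaldehyde, 1 ug/ml Hoechst) and their nuclei counted on 4× images. Treatment had been applied by pin tool the day after seeding as one drug alone or as a fixed anchor-drug dose with five library-drug doses (not always all listed) in √10 steps. Relative viability is the nuclei count of treated wells divided by that of vehicle wells, and values are medians of duplicate plates.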

Compound in assay [2]: CC1(C)CCC(CN2CCN(c3ccc(C(=O)NS(=O)(=O)c4ccc(NCC5CCOCC5)c([N+](=O)[O-])c4)c(Oc4cnc5[nH]ccc5c4)c3)CC2)=C(c2ccc(Cl)cc2)C1 [Venetoclax] + COc1cccc2cc(-c3nc([C@H]4CC[C@H](C(=O)O)CC4)n4ncnc(N)c34)[nH]c12 [OSI-027] (partner 0.5 µM)
The method, boiled down: as §1

Compound in assay [3]: Cn1cnc2c(F)c(Nc3ccc(Br)cc3Cl)c(C(=O)NOCCO)cc21 [Selumetinib] + Cc1nc(NC(=O)N2CCC[C@H]2C(N)=O)sc1-c1ccnc(C(C)(C)C(F)(F)F)c1 [Alpelisib] (partner 2 µM)
A digest of the protocol: as §1

Compound in assay [4]: CC1(C)CCC(CN2CCN(c3ccc(C(=O)NS(=O)(=O)c4ccc(NCC5CCOCC5)c([N+](=O)[O-])c4)c(Oc4cnc5[nH]ccc5c4)c3)CC2)=C(c2ccc(Cl)cc2)C1 [Venetoclax] + NC(=O)Nc1cc(-c2cccc(F)c2)sc1C(=O)N[C@H]1CCCNC1 [AZD7762] (partner 0.2 µM)
The method, boiled down: as §1

For the cell line NCI-H2170, the relative viability in assay [1] (first compound 0.01 µM) came out at 0.723; in assay [1] (first compound 0.03162 µM), 0.68; in assay [1] (first compound 0.1 µM), 0.592; in assay [1] (first compound 0.3162 µM), 0.646; in assay [1] (first compound 1 µM), 0.632; in assay [2] (first compound 0.01 µM), 0.597. Moreover, the relative viability is 0.802 in assay [2] (first compound 0.03162 µM); 0.552 in assay [2] (first compound 0.1 µM); 0.713 in assay [2] (first compound 0.3162 µM); 0.633 in assay [2] (first compound 1 µM); 0.763 in assay [3] (first compound 0.02 µM); 0.828 in assay [3] (first compound 0.06325 µM). Moreover, the relative viability worked out at 0.736 in assay [3] (first compound 0.2 µM); 0.658 in assay [3] (first compound 0.6325 µM); 0.735 in assay [4] (first compound 0.01 µM); 0.805 in assay [4] (first compound 0.03162 µM); 0.692 in assay [4] (first compound 0.1 µM); 0.806 in assay [4] (first compound 0.3162 µM). Besides, the relative viability in assay [4] (first compound 1 µM) amounted to 0.763.

As to NCI-H1395, the relative viability was determined as 0.851 in assay [1] (first compound 0.01 µM); 0.85 in assay [1] (first compound 0.03162 µM); 0.705 in assay [1] (first compound 0.1 µM); 0.782 in assay [1] (first compound 0.3162 µM); 0.762 in assay [1] (first compound 1 µM); 0.623 in assay [2] (first compound 0.01 µM). The relative viability was 0.603 in assay [2] (first compound 0.03162 µM); 0.605 in assay [2] (first compound 0.1 µM); 0.656 in assay [2] (first compound 0.3162 µM); 0.662 in assay [2] (first compound 1 µM); 0.981 in assay [3] (first compound 0.02 µM); 1.05 in assay [3] (first compound 0.06325 µM). The relative viability in assay [3] (first compound 0.2 µM) was 0.953; in assay [3] (first compound 0.6325 µM), 1.02; in assay [4] (first compound 0.01 µM), 0.402; in assay [4] (first compound 0.03162 µM), 0.442; in assay [4] (first compound 0.1 µM), 0.392; in assay [4] (first compound 0.3162 µM), 0.434. For the same cell line, the relative viability in assay [4] (first compound 1 µM) stood at 0.405.

Turning to LC-2-ad, the relative viability in assay [1] (first compound 0.01 µM) worked out at 0.418; in assay [1] (first compound 0.03162 µM) it was 0.398; in assay [1] (first compound 0.1 µM) it was 0.425; in assay [1] (first compound 0.3162 µM), 0.535; in assay [1] (first compound 1 µM) it was 0.433; in assay [2] (first compound 0.01 µM), 1.01. Also, the relative viability in assay [2] (first compound 0.03162 µM) is 0.934; in assay [2] (first compound 0.1 µM), 0.72; in assay [2] (first compound 0.3162 µM), 0.905; in assay [2] (first compound 1 µM), 0.845; in assay [3] (first compound 0.02 µM), 0.862; in assay [3] (first compound 0.06325 µM) it was 0.82. Also, the relative viability was 0.66 in assay [3] (first compound 0.2 µM); 0.848 in assay [3] (first compound 0.6325 µM); 0.992 in assay [4] (first compound 0.01 µM); 0.856 in assay [4] (first compound 0.03162 µM); 0.809 in assay [4] (first compound 0.1 µM); 0.845 in assay [4] (first compound 0.3162 µM). Also, the relative viability in assay [4] (first compound 1 µM) was 0.802.

As for NCI-H358, the relative viability in assay [1] (first compound 0.01 µM) was determined as 0.117; in assay [1] (first compound 0.03162 µM) it was 0.0943; in assay [1] (first compound 0.1 µM) it was 0.115; in assay [1] (first compound 0.3162 µM) it was 0.0994; in assay [1] (first compound 1 µM), 0.102; in assay [2] (first compound 0.01 µM), 0.747. In addition, the relative viability in assay [2] (first compound 0.03162 µM) came to 0.841; in assay [2] (first compound 0.1 µM), 0.697; in assay [2] (first compound 0.3162 µM) it was 0.83; in assay [2] (first compound 1 µM) it was 0.695; in assay [3] (first compound 0.02 µM), 0.645; in assay [3] (first compound 0.06325 µM), 0.472. For the same cell line, the relative viability in assay [3] (first compound 0.2 µM) was found to be 0.39; in assay [3] (first compound 0.6325 µM), 0.305; in assay [4] (first compound 0.01 µM), 0.338; in assay [4] (first compound 0.03162 µM), 0.527; in assay [4] (first compound 0.1 µM), 0.556; in assay [4] (first compound 0.3162 µM), 0.714. The relative viability in assay [4] (first compound 1 µM) amounted to 0.558.

Consider PC-3 [JPC-3], for which the relative viability in assay [1] (first compound 0.01 µM) turned out to be 0.841; in assay [1] (first compound 0.03162 µM), 0.909; in assay [1] (first compound 0.1 µM) it was 0.816; in assay [1] (first compound 0.3162 µM) it was 0.88; in assay [1] (first compound 1 µM) it was 0.853; in assay [2] (first compound 0.01 µM) it was 0.676. In addition, the relative viability in assay [2] (first compound 0.03162 µM) was 0.719; in assay [2] (first compound 0.1 µM), 0.779; in assay [2] (first compound 0.3162 µM) it was 0.791; in assay [2] (first compound 1 µM), 0.608; in assay [3] (first compound 0.02 µM) it was 1.02; in assay [3] (first compound 0.06325 µM), 0.935. Besides, the relative viability was found to be 0.9 in assay [3] (first compound 0.2 µM); 0.752 in assay [3] (first compound 0.6325 µM); 0.787 in assay [4] (first compound 0.01 µM); 0.828 in assay [4] (first compound 0.03162 µM); 0.89 in assay [4] (first compound 0.1 µM); 0.836 in assay [4] (first compound 0.3162 µM). Also, the relative viability in assay [4] (first compound 1 µM) stood at 0.744.

CAL-12T: the relative viability in assay [1] (first compound 0.01 µM) was determined as 0.302; in assay [1] (first compound 0.03162 µM), 0.346; in assay [1] (first compound 0.1 µM), 0.28; in assay [1] (first compound 0.3162 µM), 0.222; in assay [1] (first compound 1 µM), 0.19; in assay [2] (first compound 0.01 µM), 0.641. For the same cell line, the relative viability is 0.693 in assay [2] (first compound 0.03162 µM); 0.639 in assay [2] (first compound 0.1 µM); 0.549 in assay [2] (first compound 0.3162 µM); 0.413 in assay [2] (first compound 1 µM); 1.22 in assay [3] (first compound 0.02 µM); 0.823 in assay [3] (first compound 0.06325 µM). In addition, the relative viability in assay [3] (first compound 0.2 µM) was 0.895; in assay [3] (first compound 0.6325 µM), 0.817; in assay [4] (first compound 0.01 µM), 0.584; in assay [4] (first compound 0.03162 µM), 0.644; in assay [4] (first compound 0.1 µM), 0.638; in assay [4] (first compound 0.3162 µM), 0.636. For the same cell line, in assay [4] (first compound 1 µM), the relative viability worked out at 0.435.
